Among the data in the supplement of paper PMC10307832 are relative viability values, retold here.

Test in all cases: relative viability (nuclei count vs DMSO), 5 days (fraction); higher = more cells survive
Compound in assay [1]: C1CNCCC1C2=CC(=NN2)C3=CC=NC=C3
The method in brief:
(§1)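 Viability was defined as treated-well nuclei divided by vehicle-well nuclei, with the median taken over replicate plates. Cells from lung cancer lines sat overnight at 37 °C in 1536-well plates, received five √10-spaced library-drug doses by pinning on vehicle-anchored plates, and grew 5 days without medium change before one-step fixation, permeabilisation and Hoechst staining, 4× imaging and MetaXpress nuclear counts. Only plates with control CV under 25% and at least one doubling were kept.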

Compound in assay [2]: C[C@@H](N)c1ccc(C(=O)Nc2ccnc3[nH]ccc23)cc1
The method in brief: as §1

Compound in assay [3]: O[C@H]1CC[C@H](Nc2ncc3nc(Nc4c(F)cc(F)cc4F)n([C@H]4CCOC4)c3n2)CC1 [Tanzisertib]
The method in brief:
as §1

Consider EBC-1, for which the relative viability in assay [1] (0.08 µM) came to 1.09; in assay [1] (0.8 µM), 0.981; in assay [1] (2.53 µM), 1.06; in assay [1] (8 µM), 1.02; in assay [2] (0.04 µM), 1.06; in assay [2] (0.1265 µM), 1.01. Besides, the relative viability was found to be 1.08 in assay [2] (0.4 µM); 1.01 in assay [2] (1.265 µM); 0.991 in assay [2] (4 µM); 1.16 in assay [3] (0.08 µM); 0.991 in assay [3] (0.253 µM); 0.971 in assay [3] (0.8 µM). For the same cell line, the relative viability worked out at 0.871 in assay [3] (2.53 µM) and 0.825 in assay [3] (8 µM).

In the case of EKVX, the relative viability is 1.03 in assay [1] (0.08 µM); 0.877 in assay [1] (0.8 µM); 1.12 in assay [1] (2.53 µM); 0.989 in assay [1] (8 µM); 1.09 in assay [2] (0.04 µM); 1.12 in assay [2] (0.1265 µM). Also, the relative viability in assay [2] (0.4 µM) stood at 1.12; in assay [2] (1.265 µM) it was 0.811; in assay [2] (4 µM) it was 0.885; in assay [3] (0.08 µM), 1.08; in assay [3] (0.253 µM) it was 1.05; in assay [3] (0.8 µM), 0.96. For the same cell line, the relative viability was 0.901 in assay [3] (2.53 µM) and 0.723 in assay [3] (8 µM).

With EMC-BAC-2, the relative viability in assay [1] (0.08 µM) was 0.78; in assay [1] (0.8 µM), 0.97; in assay [1] (2.53 µM) it was 1.07; in assay [1] (8 µM) it was 0.98; in assay [2] (0.04 µM), 0.769; in assay [2] (0.1265 µM) it was 1.02. Moreover, the relative viability turned out to be 0.945 in assay [2] (0.4 µM); 0.789 in assay [2] (1.265 µM); 0.795 in assay [2] (4 µM); 0.989 in assay [3] (0.08 µM); 1.31 in assay [3] (0.253 µM); 0.99 in assay [3] (0.8 µM). In addition, the relative viability worked out at 1.04 in assay [3] (2.53 µM) and 0.82 in assay [3] (8 µM).

As to EPLC-272H, the relative viability in assay [1] (0.08 µM) stood at 0.902; in assay [1] (0.8 µM), 0.94; in assay [1] (2.53 µM), 0.929; in assay [1] (8 µM), 0.98; in assay [2] (0.04 µM) it was 0.9; in assay [2] (0.1265 µM), 0.973. The relative viability in assay [2] (0.4 µM) turned out to be 1.11; in assay [2] (1.265 µM) it was 0.356; in assay [2] (4 µM), 0.791; in assay [3] (0.08 µM), 1.14; in assay [3] (0.253 µM) it was 0.95; in assay [3] (0.8 µM), 1.09. The relative viability in assay [3] (2.53 µM) is 0.908; in assay [3] (8 µM) it was 0.761.

Consider H3255, for which the relative viability in assay [1] (0.08 µM) turned out to be 0.934; in assay [1] (0.8 µM), 0.952; in assay [1] (2.53 µM), 1.2; in assay [1] (8 µM), 1; in assay [2] (0.04 µM), 1; in assay [2] (0.1265 µM) it was 1.21. Also, the relative viability in assay [2] (0.4 µM) was determined as 1.16; in assay [2] (1.265 µM), 1.01; in assay [2] (4 µM), 0.925; in assay [3] (0.08 µM), 0.998; in assay [3] (0.253 µM), 1.03; in assay [3] (0.8 µM) it was 1.08. Besides, the relative viability in assay [3] (2.53 µM) was determined as 0.957; in assay [3] (8 µM), 0.599.

With HARA, the relative viability in assay [1] (0.08 µM) is 1.05; in assay [1] (0.8 µM) it was 0.898; in assay [1] (2.53 µM) it was 1.16; in assay [1] (8 µM) it was 0.928; in assay [2] (0.04 µM), 1; in assay [2] (0.1265 µM), 0.929. The relative viability in assay [2] (0.4 µM) amounted to 1.11; in assay [2] (1.265 µM), 0.689; in assay [2] (4 µM), 0.779; in assay [3] (0.08 µM) it was 1.12; in assay [3] (0.253 µM), 1.12; in assay [3] (0.8 µM), 0.932. Besides, the results for the relative viability in assay [3] (2.53 µM) and in assay [3] (8 µM) were 1.05 and 0.725, respectively.

With HCC-15, the relative viability amounted to 0.987 in assay [1] (0.08 µM); 1.1 in assay [1] (0.8 µM); 0.98 in assay [1] (2.53 µM); 0.939 in assay [1] (8 µM); 1.03 in assay [2] (0.04 µM); 0.971 in assay [2] (0.1265 µM). Moreover, the relative viability is 1.02 in assay [2] (0.4 µM); 0.623 in assay [2] (1.265 µM); 0.908 in assay [2] (4 µM); 1.16 in assay [3] (0.08 µM); 1 in assay [3] (0.253 µM); 1.04 in assay [3] (0.8 µM). In addition, the relative viability in assay [3] (2.53 µM) was 0.944; in assay [3] (8 µM), 0.768.

Turning to HCC-44, the relative viability in assay [1] (0.08 µM) is 0.999; in assay [1] (0.8 µM), 1.05; in assay [1] (2.53 µM), 1; in assay [1] (8 µM), 0.999; in assay [2] (0.04 µM) it was 0.95; in assay [2] (0.1265 µM) it was 0.988. The relative viability in assay [2] (0.4 µM) stood at 1.03; in assay [2] (1.265 µM) it was 0.927; in assay [2] (4 µM), 0.941; in assay [3] (0.08 µM), 0.985; in assay [3] (0.253 µM), 1.11; in assay [3] (0.8 µM), 1.07. Moreover, the relative viability in assay [3] (2.53 µM) came to 1.04; in assay [3] (8 µM), 1.11.

With HCC-78, the relative viability in assay [1] (0.08 µM) stood at 1.04; in assay [1] (0.8 µM), 0.706; in assay [1] (2.53 µM), 1; in assay [1] (8 µM) it was 1.03; in assay [2] (0.04 µM), 1.23; in assay [2] (0.1265 µM), 0.933. Besides, the relative viability in assay [2] (0.4 µM) stood at 1.23; in assay [2] (1.265 µM) it was 0.72; in assay [2] (4 µM) it was 0.92; in assay [3] (0.08 µM), 1.06; in assay [3] (0.253 µM), 1.02; in assay [3] (0.8 µM), 0.986. For the same cell line, the relative viability in assay [3] (2.53 µM) is 0.97; in assay [3] (8 µM), 0.682.
